In PMC8329300, “X-ray crystallography reveals molecular recognition mechanism for sugar binding in a melibiose transporter MelB” (Communications Biology, 2021):
“And” between values parts separate entries of the source, which are not always exact repeats. Identical values can stand only once.

How the values were obtained:
D59C MelBSt = target: T1, D59C MelBSt (Salmonella typhimurium, UniProt P30878, D59C); experiment: Trp→dansyl galactoside (D2G) FRET time trace and IC50 of D2G displacement (D59C); format: binding
T1 construct: Cys scanning mutagenesis for the full-length MelBSt; His10 (C); made in house; host or cells: E. coli DW2
Method: Fig. 1 Functional characterizations. a [^3H] Melibiose transport time course with intact cells. […] Inset, melibiose fermentation assay. Transformants with DW2 strain were plated on MacConkey agar plates containing 30 mM melibiose as the sole carbohydrate source and pH sensor neutral red, and incubated at 37 °C for 16–18 h before imaging. Number of tests = 3, from different batch of cells or duplicate measurements from same batch of sample. b Ligand binding by Trp→dansyl galactoside (D^2G) FRET assay. Purified proteins at 1 μM concentration in 20 mM Tris-HCl, pH 7.5, 100 mM CholCl, 10% glycerol, and 0.03% UDM were subjected to steady-state fluorescence measurements as described in Methods. On the time-trace, 1.8 μL of 1 mM D^2G at 10 μM was added into 180 μL of protein solutions at 1-min point, followed by supplying 10 μL of 5 mM DDMB or 5 mM α-NPG to displace the bound D^2G. For testing Na^+ or Li^+ binding, they are added into the solution before displacement with the second sugar. The structure of DDMB or α-NPG is shown in a chair form, and the carbon positions are labeled. Glycosidic bonds are indicated by arrows. Both are α-galactosides containing a substituent at the anomeric carbon-1. The data were from duplicate measurements.
Steady-state fluorescence measurements were performed with an AMINCO-Bowman series 2 spectrometer with purified MelBSt at 1 μM in 20 mM Tris-HCl, pH 7.5, 100 mM CholCl, 10% glycerol, 0.03% UDM. Using an excitation wavelength at 290 nm, the emission intensity was recorded at 490 nm. On a time-trace, D^2G, NaCl or LiCl, then DDMB or α-NPG, were sequentially added into the protein solutions at a 1 min-interval. […] An identical volume of water was used for the control. The decrease in intensity after each addition of DDMB or α-NPG was corrected by the dilution effect and plotted as a function of the accumulated α-NPG concentrations or estimated DDMB concentrations. The 50% inhibitory concentration (IC50) was determined by fitting a hyperbolic function to the data (OriginPro 2020b). The final concentration of each detergent is estimated to be 234 μM, which is less than their CMC value for (DDMB, 295 μM).
Supplementary Figure 2. Determination of DDMB binding affinity to MelBSt. (a) Titration with DDMB or a-NPG. MelBSt in 20 mM Tris-HCl, pH 7.5, 100 mM CholCl, 10% glycerol, 0.03% UDM without (1) or with 100 mM NaCl (2) were added with D2G at 10 μM at 1-min time point as indicated by triangle symbols on the Trp®dansyl FRET time trace. Starting at the 2-min of time point, DDMB or a-NPG solution was supplemented consecutively at a 1-min interval into MelBSt solution till no change in fluorescence intensity reached as indicated in star symbols. DDM and UDM were used as negative controls. 1% DDM or UDM was titrated into the mixture, The […]
At 2-min time point, additions of galactosides were colored in pink, a-NPG in yellow, UDM in blue, DDM in light blue, water in gray traces, respectively. (b) IC50 determination. The intensity decrease at each titration were corrected by the dilution effect, and plotted as a function of the accumulated DDMB or α-NPG concentration. The 50% inhibitory concentration (IC50) was determined by fitting the data to a hyperbolic function (OriginPro 2020b). Results are presented in […]
(1 picture or pasted object on this page, not shown here)

WT MelBSt = target: T2, WT MelBSt (Salmonella typhimurium, UniProt P30878); conditions: cited from earlier work
T2 construct: Cys scanning mutagenesis for the full-length MelBSt; His10 (C); made in house; host or cells: E. coli DW2
T2 sequence (P30878 whole entry): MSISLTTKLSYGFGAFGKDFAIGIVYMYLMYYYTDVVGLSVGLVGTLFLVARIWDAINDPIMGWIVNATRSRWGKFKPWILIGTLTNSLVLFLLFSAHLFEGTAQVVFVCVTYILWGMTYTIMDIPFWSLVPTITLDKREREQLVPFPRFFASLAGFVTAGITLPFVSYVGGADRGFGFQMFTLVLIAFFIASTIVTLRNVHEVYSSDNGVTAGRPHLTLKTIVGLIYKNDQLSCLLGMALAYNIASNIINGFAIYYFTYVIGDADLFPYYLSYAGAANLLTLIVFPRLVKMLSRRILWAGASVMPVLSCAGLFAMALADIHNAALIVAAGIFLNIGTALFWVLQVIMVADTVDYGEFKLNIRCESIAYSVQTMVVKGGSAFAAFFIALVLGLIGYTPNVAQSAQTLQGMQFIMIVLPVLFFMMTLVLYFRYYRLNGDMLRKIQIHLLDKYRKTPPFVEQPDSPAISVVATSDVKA

T1 sequence (P30878 whole entry D59C): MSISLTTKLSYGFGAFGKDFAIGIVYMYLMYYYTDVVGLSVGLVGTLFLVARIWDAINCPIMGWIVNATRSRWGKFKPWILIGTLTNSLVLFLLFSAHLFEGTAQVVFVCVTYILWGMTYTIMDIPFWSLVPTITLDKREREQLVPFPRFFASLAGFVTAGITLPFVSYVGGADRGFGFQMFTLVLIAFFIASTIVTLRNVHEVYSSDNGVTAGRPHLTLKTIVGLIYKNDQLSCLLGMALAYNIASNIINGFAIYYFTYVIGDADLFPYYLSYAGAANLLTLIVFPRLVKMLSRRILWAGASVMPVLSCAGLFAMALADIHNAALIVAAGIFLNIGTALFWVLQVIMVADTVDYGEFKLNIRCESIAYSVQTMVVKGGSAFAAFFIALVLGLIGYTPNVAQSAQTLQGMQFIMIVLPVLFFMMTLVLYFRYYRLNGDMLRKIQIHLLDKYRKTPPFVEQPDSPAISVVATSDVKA

For CN(C)c1cccc2c(S(=O)(=O)NCCS[C@@H]3O[C@H](CO)[C@H](O)[C@H](O)[C@H]3O)cccc12 [D^2G, 2′-(N-dansyl)aminoalkyl-1-thio-β-D-galactopyranoside], the “Trp to D2G FRET signal, Test” value (D59C MelBSt; D59C MelBSt mutant H+, Time 1.58333) was 1.236 and 1.275, the “Trp to D2G FRET signal, Test” value (D59C MelBSt; D59C MelBSt mutant H+, Time 1.6) was 1.234 and 1.287 and the “Trp to D2G FRET signal, Test” value (D59C MelBSt; D59C MelBSt mutant H+, Time 1.61667) was 1.243 and 1.289. The “Trp to D2G FRET signal, Test” value (D59C MelBSt; D59C MelBSt mutant H+, Time 1.63333) was 1.234 and 1.283, the “Trp to D2G FRET signal, Test” value (D59C MelBSt; D59C MelBSt mutant H+, Time 1.65) was 1.232 and 1.292 and the “Trp to D2G FRET signal, Test” value (D59C MelBSt; D59C MelBSt mutant H+, Time 1.66667) was 1.262 and 1.286. The “Trp to D2G FRET signal, Test” value (D59C MelBSt; D59C MelBSt mutant H+, Time 1.68333) was 1.239 and 1.271, the “Trp to D2G FRET signal, Test” value (D59C MelBSt; D59C MelBSt mutant H+, Time 1.7) was 1.251 and 1.2854 and the “Trp to D2G FRET signal, Test” value (D59C MelBSt; D59C MelBSt mutant H+, Time 1.71667) was 1.228 and 1.2851. The “Trp to D2G FRET signal, Test” value (D59C MelBSt; D59C MelBSt mutant H+, Time 1.73333) was 1.233 and 1.277, the “Trp to D2G FRET signal, Test” value (D59C MelBSt; D59C MelBSt mutant H+, Time 1.75) was 1.255 and 1.269 and the “Trp to D2G FRET signal, Test” value (D59C MelBSt; D59C MelBSt mutant H+, Time 1.76667) was 1.25 and 1.265. For the same molecule, the “Trp to D2G FRET signal, Test” value (D59C MelBSt; D59C MelBSt mutant H+, Time 1.78333) was 1.239 and 1.277, the “Trp to D2G FRET signal, Test” value (D59C MelBSt; D59C MelBSt mutant Li+, Time 1.58333) was 1.183 and 1.18 and 1.353 and the “Trp to D2G FRET signal, Test” value (D59C MelBSt; D59C MelBSt mutant Li+, Time 1.6) was 1.194 and 1.191 and 1.312. The “Trp to D2G FRET signal, Test” value (D59C MelBSt; D59C MelBSt mutant Li+, Time 1.61667) was 1.182 and 1.19 and 1.349, the “Trp to D2G FRET signal, Test” value (D59C MelBSt; D59C MelBSt mutant Li+, Time 1.63333) was 1.194 and 1.172 and 1.325 and the “Trp to D2G FRET signal, Test” value (D59C MelBSt; D59C MelBSt mutant Li+, Time 1.65) was 1.192 and 1.191 and 1.377. For the same molecule, the “Trp to D2G FRET signal, Test” value (D59C MelBSt; D59C MelBSt mutant Li+, Time 1.66667) was 1.194 and 1.178 and 1.324, the “Trp to D2G FRET signal, Test” value (D59C MelBSt; D59C MelBSt mutant Li+, Time 1.68333) was 1.1972 and 1.188 and 1.334 and the “Trp to D2G FRET signal, Test” value (D59C MelBSt; D59C MelBSt mutant Li+, Time 1.7) was 1.181 and 1.193 and 1.331. For the same molecule, the “Trp to D2G FRET signal, Test” value (D59C MelBSt; D59C MelBSt mutant Li+, Time 1.71667) was 1.193 and 1.183 and 1.334, the “Trp to D2G FRET signal, Test” value (D59C MelBSt; D59C MelBSt mutant Li+, Time 1.73333) was 1.188 and 1.175 and 1.3208 and the “Trp to D2G FRET signal, Test” value (D59C MelBSt; D59C MelBSt mutant Li+, Time 1.75) was 1.1972 and 1.183 and 1.3266. For the same molecule, the “Trp to D2G FRET signal, Test” value (D59C MelBSt; D59C MelBSt mutant Li+, Time 1.76667) was 1.189 and 1.172 and 1.31, the “Trp to D2G FRET signal, Test” value (D59C MelBSt; D59C MelBSt mutant Na+, Time 1.58333) was 1.29 and 1.292 and 1.375 and the “Trp to D2G FRET signal, Test” value (D59C MelBSt; D59C MelBSt mutant Na+, Time 1.6) was 1.287 and 1.293 and 1.38. For the same molecule, the “Trp to D2G FRET signal, Test” value (D59C MelBSt; D59C MelBSt mutant Na+, Time 1.61667) was 1.293 and 1.2915 and 1.362, the “Trp to D2G FRET signal, Test” value (D59C MelBSt; D59C MelBSt mutant Na+, Time 1.63333) was 1.299 and 1.278 and 1.358 and the “Trp to D2G FRET signal, Test” value (D59C MelBSt; D59C MelBSt mutant Na+, Time 1.65) was 1.272 and 1.269 and 1.372. For the same molecule, the “Trp to D2G FRET signal, Test” value (D59C MelBSt; D59C MelBSt mutant Na+, Time 1.66667) was 1.295 and 1.266 and 1.37, the “Trp to D2G FRET signal, Test” value (D59C MelBSt; D59C MelBSt mutant Na+, Time 1.68333) was 1.287 and 1.289 and 1.378 and the “Trp to D2G FRET signal, Test” value (D59C MelBSt; D59C MelBSt mutant Na+, Time 1.7) was 1.301 and 1.273 and 1.365. The “Trp to D2G FRET signal, Test” value (D59C MelBSt; D59C MelBSt mutant Na+, Time 1.71667) was 1.2912 and 1.279 and 1.361, the “Trp to D2G FRET signal, Test” value (D59C MelBSt; D59C MelBSt mutant Na+, Time 1.73333) was 1.293 and 1.29 and 1.3441 and the “Trp to D2G FRET signal, Test” value (D59C MelBSt; D59C MelBSt mutant Na+, Time 1.75) was 1.291 and 1.287 and 1.358. The “Trp to D2G FRET signal, Test” value (D59C MelBSt; D59C MelBSt mutant Na+, Time 1.76667) was 1.307 and 1.279 and 1.387, the “Trp to D2G FRET signal, Test” value (D59C MelBSt; D59C MelBSt mutant Na+, Time 1.78333) was 1.304 and 1.264 and the Kd (WT MelBSt) was 10 µM.
